Here are results for nine molecules from PubChem BioAssay AID1918937 (Molecular Pharmacology Branch, DTP, NCI, 2023).

Values joined by “and” are separate entries in the source; they are usually repeats but may differ in a detail not shown here. Equal values may be shown once.

For orientation: viability, T/C means the ratio of treated to control. Broadly, the IC50 is the midpoint of a concentration-inhibition curve.

For this test, the system named is 521955-158-R2-J5-PDC complex spheroid viability. Briefly: Anticancer human tumor 521955-158-R2-J5-PDC patient-derived pancreatic carcinoma cell line growth inhibition. The settings on record: for viability, T/C: stronger effect = lower value; for IC50: curve of compound. The source says:
Multicellular complex tumor spheroid response to LSD1 Inhibitor Iadademstat in combination with a variety of drugs and investigational agents in selected tumor cell lines
The current study was undertaken to assess response to LSD1 inhibitors in combination with standard-of-care drugs and investigational agents in solid tumor complex spheroid models as well as in the K-562 leukemia. Complex spheroids include a stromal component modeled by human endothelial cells (HUVEC) and fibroblasts modeled by human mesenchymal stem cells (MSCs). The concentration ranges selected for each drug and investigational agent were based upon clinically achievable concentrations if the clinical Cmax of the agent was known.
Compounds. The drugs and investigational agents used in this study are listed on Table 1. All of the agents used, including staurosporine (NSC755774) and gemcitabine (NSC613327), were obtained from the Developmental Therapeutics Program, NCI. FDA-approved anticancer drugs are available from the NCI at http://dtp.nci.nih.gov/branches/dscb/oncology_drugset_explanation.html. Drugs and investigational agents were >95% pure by proton nuclear magnetic resonance (NMR) and liquid chromatography/mass spectrometry (LC/MS). Stock solutions were prepared at 400x in DMSO, stored at -70 degrees C, and diluted in fresh medium prior to their use. The final concentration of DMSO in cell culture wells never exceeded 0.25% (v/v). The FDA-approved anticancer drug set is available from the Developmental Therapeutics Program at https://dtp.cancer.gov/organization/dscb/obtaining/available_plates.htm. All drugs and investigational agents were tested over a range starting from a high concentration at or near the clinical Cmax and decreasing in half-log increments. If the clinical Cmax for an agent had not been determined, the highest concentration tested was 10 microM.
Cell Lines. The patient-derived cancer cell (PDC) lines: 292921-168-R-J2-PDC, K24384-001-R-PDC, and 521955-158-R2-J5-PDC pancreatic carcinomas, 556581-035-R-J1 ovarian carcinoma, 324938-238-R-J1-PDC, 855422-203-R-J1-PDC and 883617-216-R-J1-PDC urothelial bladder carcinomas, 743489-274-T-PDC renal cell carcinoma, 138582-R-J1 Merkel cell tumor, K60290-347-R-J1 and K57222-313-R-J1-PDC glioblastomas, 653999-131-R-J2-PDC, LG0703-F948-PDC, and 349418-098-R-PDC non-small cell lung carcinomas, 885512-296-R-J2-PDC, 171881-019-R-J1-PDC breast carcinomas and 186277-243-T-J2-PDC and 233499-124-R-J2-PDC colon carcinomas were obtained from the NCI Patient-Derived Models Repository (PDMR, https://pdmr.cancer.gov). The established cell lines NCI/ADR-RES (RRID:CVCL_14520 and OVCAR-5 (RRID:CVCL_1628) ovarian carcinomas, 786-O (RRID:CVCL_1051) and A498 (RRID:CVCL_A498) renal cell carcinoma, NCI-H211 (ATCC, cat. CRL-5824; RRID:CVCL_1529), NCI-H196 (ATCC, cat. CRL-5823, RRID:CVCL_1509), SW 1271 (ATCC, cat. CRL-2177, RRID:CVCL_1716) and NCI-H1876 (ATCC, cat. CRL-5902, RRID:CVCL_1503) small cell lung carcinomas, MDA-MB-231 (RRID:CVCL_0062) and MDA-MB-468 (RRID:CVCL_0419)breast carcinomas (10-12). Pooled donor human umbilical vein endothelial cells (HUVEC, Lonza, cat. CC-2519) and human mesenchymal stem cells (hMSC, Lonza, cat. PT-2501) were purchased from Lonza (Walkersville, MD).
Cell Culture. All cells were maintained in an incubator at 37 degrees C and 5% CO2 with 95% humidity. The PDC lines were cultured according to standard operating procedures established by the NCI PDMR (https://pdmr.cancer.gov). Briefly all PDCs were thawed and cultured in Matrigel-coated flasks prepared with a working solution of 1X Ham's F-12 nutrient mix, without supplementation (Invitrogen, Waltham, MA, cat. 11765054), 100 U/mL penicillin-streptomycin (Invitrogen, cat. 15140122), and 2.5% Matrigel (Corning Inc., Corning, NY, cat. 354248) for the first three passages. […]
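Note: spheroids exposed to agents for seven days.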
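Throughout, for viability, T/C: percent of DMSO vehicle control luminescence viability.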

Regarding `Cn1ncnc1C1c2n[nH]c(=O)c3cc(F)cc(c23)NC1c1ccc(F)cc1` (stereo unspecified), the half-maximal inhibitory concentration (IC50) was > 100 nM. In addition, the viability, T/C (compound 0.000316 µM) is 102% and 101%. The viability, T/C (compound 0.001 µM) is 97.6% and 112%. The viability, T/C (compound 0.00316 µM) is 95.6% and 91.6%. For the same molecule, the viability, T/C (compound 0.01 µM) was 96.3% and 103%. Besides, the viability, T/C (compound 0.0316 µM) is 91.7% and 89.2%. Where the note is “compound 0.1 µM”, the viability, T/C is 86.4% and 98%.
For `NS(=O)(=O)OCC1CC(n2ccc3c(NC4CCc5ccccc54)ncnc32)CC1O` (stereo unspecified), the IC50 is 31.9 nM and 67 nM. Moreover, where the note is “compound 0.00949 µM”, the viability, T/C is 79% and 92.2%. In addition, the viability, T/C (compound 0.03 µM) is 51.8% and 75%. Moreover, the viability, T/C (compound 0.0949 µM) is 24.6% and 38.1%. For the setting “compound 0.3 µM”, the viability, T/C was 16.3% and 20.5%. Further, for the setting “compound 0.949 µM”, the viability, T/C is 14.1% and 15.6%. For the same molecule, the viability, T/C (compound 3 µM) was 9.5% and 9.51%.
For the molecule `Nc1ccccc1NC(=O)c1ccc(CNC(=O)OCc2cccnc2)cc1`, the IC50 was 324 nM and 508 nM. For the same molecule, the viability, T/C (compound 0.00949 µM) was 105% and 117%. Also, the viability, T/C (compound 0.03 µM) was 102% and 112%. The viability, T/C (compound 0.0949 µM) was 83.6% and 104%. Moreover, the viability, T/C (compound 0.3 µM) is 56.4% and 70.6%. Moreover, the viability, T/C (compound 0.949 µM) was 11.1% and 25.3%. Further, the viability, T/C (compound 3 µM) is 0.41% and 0.46%.
In the case of `Nc1ccn(C2OC(CO)C(O)C2(F)F)c(=O)n1` (stereo unspecified), the half-maximal inhibitory concentration (IC50) is 71.1 nM and 96.5 nM. The viability, T/C (compound 0.000949 µM) is 106% and 95.4%. Besides, the viability, T/C (compound 0.003 µM) was 112% and 89%. For the setting “compound 0.00949 µM”, the viability, T/C was 97.3% and 98.3%. Further, the viability, T/C (compound 0.03 µM) is 73.4% and 89.6%. Further, the viability, T/C (compound 0.0949 µM) was 43% and 50.5%. Moreover, where the note is “compound 0.3 µM”, the viability, T/C was 12% and 17.5%.
As for `Nc1ncn(C2CC(O)C(CO)O2)c(=O)n1` (stereo unspecified), the 50% inhibitory concentration (IC50) is > 1000 nM. Also, the viability, T/C (compound 0.00316 µM) is 99.5% and 107%. Moreover, the viability, T/C (compound 0.01 µM) was 103% and 102%. The viability, T/C (compound 0.0316 µM) was 96.7% and 96.2%. Further, the viability, T/C (compound 0.1 µM) was 81.8% and 84.8%. Under “compound 0.316 µM”, the viability, T/C was 79% and 74.5%. Also, the viability, T/C (compound 1 µM) is 64.4% and 52.7%.
Consider `Nc1ncn(C2CC(O)C(CO)S2)c(=O)n1` (stereo unspecified), for which the IC50 was 226 nM and > 300 nM. Also, under “compound 0.000949 µM”, the viability, T/C is 103% and 99.3%. The viability, T/C (compound 0.003 µM) was 105% and 110%. In addition, the viability, T/C (compound 0.00949 µM) is 104% and 105%. Moreover, the viability, T/C (compound 0.03 µM) was 93.2% and 90.9%. Further, where the note is “compound 0.0949 µM”, the viability, T/C was 77.6% and 73.8%. The viability, T/C (compound 0.3 µM) was 41.2% and 53.5%.
For `O=C(C=Cc1cccc(S(=O)(=O)Nc2ccccc2)c1)NO`, the half-inhibitory concentration (IC50) is > 3000 nM and 619 nM. Also, under “compound 0.00949 µM”, the viability, T/C is 114%. In addition, the viability, T/C (compound 0.03 µM) is 108% and 119%. In addition, the viability, T/C (compound 0.0949 µM) is 91.1% and 104%. For the same molecule, the viability, T/C (compound 0.3 µM) is 48.3% and 70.4%. The viability, T/C (compound 0.949 µM) is 10.4% and 38.4%.
Turning to `O=C(C=Cn1cnc(-c2cc(C(F)(F)F)cc(C(F)(F)F)c2)n1)NNc1cnccn1`, the viability, T/C is, setting by setting: (compound 0.00316 µM) 44% and 57%; (compound 0.01 µM) 36.4% and 61.1%; (compound 0.0316 µM) 40.2% and 68%; (compound 0.1 µM) 31.9% and 73.8%; (compound 0.316 µM) 15.7% and 36.3%; (compound 1 µM) 11.8% and 16.6%.
As to `O=C(c1cc(Cc2n[nH]c(=O)c3ccccc23)ccc1F)N1CCN(C(=O)C2CC2)CC1`, the half-maximal inhibitory concentration (IC50) is > 10000 nM. The viability, T/C (compound 0.0316 µM) was 95.7% and 102%. In addition, the viability, T/C (compound 0.1 µM) is 103% and 100%. Moreover, the viability, T/C (compound 0.316 µM) is 100% and 104%. The viability, T/C (compound 1 µM) was 100% and 97.1%. Also, the viability, T/C (compound 3.16 µM) was 90.8% and 96.1%. Moreover, the viability, T/C (compound 10 µM) is 55.5% and 78.5%.
